# Results: PubChem BioAssay (NCI)
#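 Exposure lasted 48 hours, with cells grown in 96-well plates and compounds tested at five concentrations. TGI: total growth inhibition.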
# Key:
# Experiment in all cases: NCI anticancer screen, dose series, 48 h
# SN12C renal = system: SN12C renal
# SF-539 CNS = system: SF-539 CNS
# SR leukemia = system: SR leukemia
# MDA-MB-435 = system: MDA-MB-435
# OVCAR-4 ovarian = system: OVCAR-4 ovarian
# NCI-H226 lung = system: NCI-H226 lung
# LOX IMVI melanoma = system: LOX IMVI melanoma
# NCI/ADR-RES ovarian = system: NCI/ADR-RES ovarian
# SK-MEL-2 melanoma = system: SK-MEL-2 melanoma
# MALME-3M melanoma = system: MALME-3M melanoma
# SW-620 colon = system: SW-620 colon
# MOLT-4 leukemia = system: MOLT-4 leukemia
# HCC-2998 colon = system: HCC-2998 colon
# MCF7 breast = system: MCF7 breast
# DU-145 prostate = system: DU-145 prostate
# TK-10 renal = system: TK-10 renal
# OVCAR-5 ovarian = system: OVCAR-5 ovarian
# A498 renal = system: A498 renal
# MDA-MB-231 breast = system: MDA-MB-231 breast
# 786-0 renal = system: 786-0 renal
# UACC-257 melanoma = system: UACC-257 melanoma
# HL-60(TB) leukemia = system: HL-60(TB) leukemia
# EKVX NSCLC = system: EKVX NSCLC
# RXF 393 renal = system: RXF 393 renal
# M14 melanoma = system: M14 melanoma
# SK-MEL-28 melanoma = system: SK-MEL-28 melanoma
# HOP-62 NSCLC = system: HOP-62 NSCLC
# OVCAR-8 ovarian = system: OVCAR-8 ovarian
# IGROV1 ovarian = system: IGROV1 ovarian
# OVCAR-3 ovarian = system: OVCAR-3 ovarian
# UO-31 renal = system: UO-31 renal
# HCT-116 colon = system: HCT-116 colon
# SNB-75 CNS = system: SNB-75 CNS
# CCRF-CEM leukemia = system: CCRF-CEM leukemia
# RPMI-8226 leukemia = system: RPMI-8226 leukemia
# SK-MEL-5 melanoma = system: SK-MEL-5 melanoma
# HOP-92 NSCLC = system: HOP-92 NSCLC
# UACC-62 melanoma = system: UACC-62 melanoma
# SNB-19 CNS = system: SNB-19 CNS
# HCT-15 colon = system: HCT-15 colon
# NCI-H23 lung = system: NCI-H23 lung
# COLO 205 colon = system: COLO 205 colon
# A549 NSCLC = system: A549 NSCLC
# BT-549 breast = system: BT-549 breast
# PC-3 prostate = system: PC-3 prostate
# NCI-H522 lung = system: NCI-H522 lung
# CAKI-1 renal = system: CAKI-1 renal
# K-562 leukemia = system: K-562 leukemia
# SF-268 CNS = system: SF-268 CNS
# HT29 colon = system: HT29 colon
# KM12 colon = system: KM12 colon
# SF-295 CNS = system: SF-295 CNS
# T-47D breast = system: T-47D breast
# U251 CNS = system: U251 CNS
# ACHN renal = system: ACHN renal
# NCI-H460 lung = system: NCI-H460 lung
# HS 578T breast = system: HS 578T breast
# MDA-N = system: MDA-N
# SK-OV-3 ovarian = system: SK-OV-3 ovarian
smiles,measurement,setting,value
CCOC(=O)c1nc2ccccc2nc1Nc1ccc(OC)cc1,TGI,SN12C renal,61.5 µM
same,TGI,SF-539 CNS,52.1 µM
same,TGI,SR leukemia,> 100 µM
same,TGI,MDA-MB-435,> 100 µM
same,TGI,OVCAR-4 ovarian,55.7 µM
same,TGI,NCI-H226 lung,> 100 µM
same,TGI,LOX IMVI melanoma,> 100 µM
same,TGI,NCI/ADR-RES ovarian,> 100 µM
same,TGI,SK-MEL-2 melanoma,> 100 µM
same,TGI,MALME-3M melanoma,> 100 µM
same,TGI,SW-620 colon,> 100 µM
same,TGI,MOLT-4 leukemia,> 100 µM
same,TGI,HCC-2998 colon,> 100 µM
same,TGI,MCF7 breast,> 100 µM
same,TGI,DU-145 prostate,> 100 µM
same,TGI,TK-10 renal,> 100 µM
same,TGI,OVCAR-5 ovarian,> 100 µM
same,TGI,A498 renal,84.5 µM
same,TGI,MDA-MB-231 breast,51.3 µM
same,TGI,786-0 renal,> 100 µM
same,TGI,UACC-257 melanoma,> 100 µM
same,TGI,HL-60(TB) leukemia,> 100 µM
same,TGI,EKVX NSCLC,> 100 µM
same,TGI,RXF 393 renal,39.7 µM
same,TGI,M14 melanoma,> 100 µM
same,TGI,SK-MEL-28 melanoma,> 100 µM
same,TGI,HOP-62 NSCLC,30.7 µM
same,TGI,OVCAR-8 ovarian,> 100 µM
same,TGI,IGROV1 ovarian,> 100 µM
same,TGI,OVCAR-3 ovarian,70.4 µM
same,TGI,UO-31 renal,> 100 µM
same,TGI,HCT-116 colon,> 100 µM
same,TGI,SNB-75 CNS,93.2 µM
same,TGI,CCRF-CEM leukemia,> 100 µM
same,TGI,RPMI-8226 leukemia,> 100 µM
same,TGI,SK-MEL-5 melanoma,> 100 µM
same,TGI,HOP-92 NSCLC,54.4 µM
same,TGI,UACC-62 melanoma,66.6 µM
same,TGI,SNB-19 CNS,83.9 µM
same,TGI,HCT-15 colon,> 100 µM
same,TGI,NCI-H23 lung,> 100 µM
same,TGI,COLO 205 colon,> 100 µM
same,TGI,A549 NSCLC,> 100 µM
same,TGI,BT-549 breast,73.6 µM
same,TGI,PC-3 prostate,> 100 µM
same,TGI,NCI-H522 lung,> 100 µM
same,TGI,CAKI-1 renal,56.6 µM
same,TGI,K-562 leukemia,> 100 µM
same,TGI,SF-268 CNS,> 100 µM
same,TGI,HT29 colon,> 100 µM
same,TGI,KM12 colon,> 100 µM
same,TGI,SF-295 CNS,54.4 µM
same,TGI,T-47D breast,> 100 µM
same,TGI,U251 CNS,> 100 µM
same,TGI,ACHN renal,> 100 µM
same,TGI,NCI-H460 lung,> 100 µM
same,TGI,HS 578T breast,> 100 µM
[N-]=[N+]=Nc1ccc2c(c1)Sc1ccccc1N2CCCCN1CCN(Cc2ccc(C(=O)c3ccc(CSCC(N)C(=O)O)cc3)cc2)CC1 (stereo not given),TGI,SN12C renal,> 100 µM
same,TGI,MDA-MB-435,3.16 µM
same,TGI,OVCAR-4 ovarian,> 100 µM
same,TGI,NCI-H226 lung,35.6 µM
same,TGI,LOX IMVI melanoma,24.9 µM
same,TGI,SK-MEL-2 melanoma,48.1 µM
same,TGI,SW-620 colon,4.79 µM
same,TGI,MOLT-4 leukemia,> 100 µM
same,TGI,HCC-2998 colon,59.2 µM
same,TGI,MCF7 breast,54.4 µM
same,TGI,DU-145 prostate,67.7 µM
same,TGI,TK-10 renal,> 100 µM
same,TGI,OVCAR-5 ovarian,> 100 µM
same,TGI,A498 renal,37.7 µM
same,TGI,MDA-MB-231 breast,50.9 µM
same,TGI,786-0 renal,24.4 µM
same,TGI,UACC-257 melanoma,69.2 µM
same,TGI,HL-60(TB) leukemia,30.8 µM
same,TGI,EKVX NSCLC,> 100 µM
same,TGI,RXF 393 renal,> 100 µM
same,TGI,SK-MEL-28 melanoma,3.8 µM
same,TGI,HOP-62 NSCLC,57.3 µM
same,TGI,IGROV1 ovarian,30.9 µM
same,TGI,OVCAR-3 ovarian,> 100 µM
same,TGI,UO-31 renal,> 100 µM
same,TGI,HCT-116 colon,29.5 µM
same,TGI,CCRF-CEM leukemia,> 100 µM
same,TGI,MDA-N,35.4 µM
same,TGI,RPMI-8226 leukemia,> 100 µM
same,TGI,SK-MEL-5 melanoma,34.9 µM
same,TGI,HOP-92 NSCLC,38.2 µM
same,TGI,UACC-62 melanoma,24.4 µM
same,TGI,HCT-15 colon,30.4 µM
same,TGI,NCI-H23 lung,74.2 µM
same,TGI,COLO 205 colon,40.1 µM
same,TGI,SK-OV-3 ovarian,> 100 µM
same,TGI,BT-549 breast,40.1 µM
same,TGI,PC-3 prostate,> 100 µM
same,TGI,NCI-H522 lung,33.7 µM
same,TGI,CAKI-1 renal,67 µM
same,TGI,K-562 leukemia,44.9 µM
same,TGI,SF-268 CNS,> 100 µM
same,TGI,HT29 colon,30.7 µM
same,TGI,KM12 colon,7.91 µM
same,TGI,SF-295 CNS,44.5 µM
same,TGI,U251 CNS,26.4 µM
same,TGI,ACHN renal,> 100 µM
same,TGI,NCI-H460 lung,> 100 µM
